Data: US11419878B2, “Medicine obtained by combining FXR agonist and ARB” (Intercept Pharmaceuticals, Inc., priority 2016, dated 2022)

Legend:
[1] = test system: α-smooth muscle actin (α-SMA); assay: Rat NASH model, immunohistological staining of liver sections with α-SMA antibody (HSC activation); type: in vivo; conditions: OLETF rats, PS 8 weeks, obeticholic acid 30 mg/kg/day and/or losartan 30 mg/kg/day oral; for α-SMA index (α-SI) compared to the positive control group: p<0.01
Description: Using the liver sections from the rats in the various groups obtained in working example 1, an immunohistochemical study by immunohistological staining with α-smooth muscle actin (α-SMA) antibody and a quantitative analysis of transforming growth factor-β1 TGF-β1) and collagen (α1(I) procollagen) mRNA expression were conducted. α-SMA is known to be an indicator (marker) of activation of hepatic stellate cells (HSCs) (also known as hepatic star cells). Moreover, activation of hepatic stellate cells (HSC), overproduction of TGF-β1 (a fibrosis-promoting cytokine) accompanying said activation, and overproduction of extracellular matrix components such as collagen are thought to play a central role in the mechanism of progressive hepatic fibrosis in NASH. For this reason, mRNA expression of TGF-β1 and collagen (α1(I) procollagen) can be a fibrosis indicator (marker).
Using the same method as described under [Histological analysis] in working example 1 above, except that immunohistological staining with α-SMA antibody was used instead of Sirius Red staining, a comparison of the micrographs among the various groups and a semiquantitative analysis of the immunohistochemical characteristics of the collected stained section images were carried out, and the blocking effect of obeticholic acid and losartan (administration groups, combined administration group) on HSC activation in the progression of hepatic fibrosis was evaluated.

[2] = test system: C57Bl/6J mice fed a choline-deficient, amino acid-defined, high-fat diet (CDAHFD); assay: Murine NASH model (CDAHFD-fed mice), H&E histology: liver cell swelling, fatty degeneration, NAS; type: in vivo, mouse; conditions: obeticholic acid 30 mg/kg/day and/or losartan 30 mg/kg/day oral, 3 weeks from 2.5 weeks of diet
From the text: The accepted pathological diagnostic criterion for NASH is “observation of liver cell ballooning accompanied by inflammation in addition to large-droplet hepatic steatosis.” Matteoni et al. conducted a long-term follow-up study of patients with NAFLD, classifying the disease based on pathology findings into 4 types (type 1: fatty liver alone, type 2: fat accumulation plus inflammatory cell infiltration, type 3: fat accumulation plus ballooning hepatocyte degeneration, type 4: fat accumulation/ballooning hepatocyte degeneration plus Mallory-Denk bodies or fibrosis). […] In order to reduce differences among individual observers and institutions, the Nonalcoholic Steatohepatitis Clinical Research Network has proposed a pathodiagnostic scoring system in which the extent of fatty degeneration, inflammation, and hepatocyte ballooning is scored (NAS: NAFLD Activity Score) (Matteoni C A, Younossi Z M, Gramlich T, Boparai N, Liu Y C, McCullough A J: Nonalcoholic fatty liver disease: A spectrum of clinical and pathological severity. Gastroenterology, 116; 1413-1419, 1999). The pathodiagnostic standards making up the NASH score were evaluated using the following animal model, and the individual and combined effects of an FXR agonist (obeticholic acid) and an ARB (losartan) were studied. […]

| SMILES | increase in activated hepatic stellate cells (Ac-HSCs), micrographs of α-SMA stained sections [1] | α-SMA index (α-SI) compared to the positive control group [1] | liver cell swelling (positive area rate, improvement) [2] |
| --- | --- | --- | --- |
| CCCCc1nc(Cl)c(CO)n1Cc1ccc(-c2ccccc2-c2nn[nH]n2)cc1 [losartan] | moderately inhibited | moderate but significant decreases | no improving tendency whatsoever |
| CC[C@H]1[C@@H](O)[C@@H]2[C@H](CC[C@]3(C)[C@@H]([C@H](C)CCC(=O)O)CC[C@@H]23)[C@@]2(C)CC[C@@H](O)C[C@@H]12 [obeticholic acid, 3α,7α-dihydroxy-6α-ethyl-5β-cholan-24-oic acid] | moderately inhibited | moderate but significant decreases | tended to be inhibited |
